Laboratory results published in patent US20250073251A1, “COMPOSITIONS AND METHODS AND USES THEREOF” (Journey Medical Corporation, priority 2019, published 2025).
Values joined by “and” are separate entries in the source; they are usually repeats but may differ in a detail not shown here. Equal values may be shown once.

Tested on: moderate-to-severe acne vulgaris
Conditions: human, in vivo

Question: `COc1ccc(-c2ccc3cc(C(=O)O)ccc3c2)cc1C12CC3CC(CC(C3)C1)C2` [0.3% adapalene foam] was tested. Which “AE Maximum Severity: Mild” value did it give?
Answer: 14 (12.5%)

Question: And the “AE Maximum Severity: Moderate” value?
Answer: 4 (3.6%)

Question: And the “AE Maximum Severity: Severe” value?
Answer: 2 (1.8%)

Question: What about the Abdominal pain of the same compound?
Answer: 0 subjects (%)

Question: What about the “Acne, (%) of subjects” value of the same compound?
Answer: (1.8%)

Question: And the Buming sensation?
Answer: 0 subjects (%)

Question: What about the “Burning and Stinging: None, subjects n (%)” value of the same compound?
Answer: 82 (78.1%) and 97 (92.4%) and 89 (89.9%) and 105 (93.8%)

Question: And the “Burning and Stinging: Severe, subjects n (%)” value?
Answer: 0

Question: What about the Burning sensation of the same compound?
Answer: 0 subjects (%)

Question: What about the Constipation of the same compound?
Answer: 0 subjects (%)

Question: What about the Dehydration of the same compound?
Answer: 0 subjects (%)

Question: What about the Dermatitis contact of the same compound?
Answer: 0 subjects (%)

Question: And the “Diastolic Blood Pressure, Max” value?
Answer: 58, 98 mmHg and 56, 93 mmHg and 57, 94 mmHg and 48, 94 mmHg

Question: What about the “Diastolic Blood Pressure, Mean” value of the same compound?
Answer: 73.1 mmHg and 72.8 mmHg and 72.1 mmHg

Question: What about the “Diastolic Blood Pressure, Median” value of the same compound?
Answer: 72.0 mmHg

Question: What about the “Diastolic Blood Pressure, Min” value of the same compound?
Answer: 58, 98 mmHg and 56, 93 mmHg and 57, 94 mmHg and 48, 94 mmHg

Question: And the “Dryness: Mild, subjects n (%)” value?
Answer: 27 (24.1%) and 26 (24.8%) and 17 (17.2%)

Question: What about the “Dryness: None, subjects n (%)” value of the same compound?
Answer: 82 (73.2%) and 75 (71.4%) and 77 (73.3%) and 81 (81.8%)

Question: And the “Dryness: Severe, subjects n (%)” value?
Answer: 0

Question: And the “Erythema: Mild, subjects n (%)” value?
Answer: 36 (32.1%) and 27 (25.7%) and 36 (34.3%) and 27 (27.3%)

Question: And the “Erythema: None, subjects n (%)” value?
Answer: 51 (45.5%) and 55 (52.4%) and 58 (55.2%) and 62 (62.6%)

Question: What about the “Erythema: Severe, subjects n (%)” value of the same compound?
Answer: 1 (0.9%) and 2 (1.9%) and 1 (1.0%)

Question: What about the “Heart Rate, Max” value of the same compound?
Answer: 52, 100 beats/min and 52, 99 beats/min and 51, 99 beats/min and 52, 96 beats/min

Question: And the “Heart Rate, Mean” value?
Answer: 75.9 beats/min and 76.1 beats/min and 75.7 beats/min and 74.1 beats/min

Question: What about the “Heart Rate, Median” value of the same compound?
Answer: 73.0 beats/min and 77.0 beats/min and 76.0 beats/min

Question: And the “Heart Rate, Min” value?
Answer: 52, 100 beats/min and 52, 99 beats/min and 51, 99 beats/min and 52, 96 beats/min

Question: What about the Hyperaesthesia of the same compound?
Answer: 0 subjects (%)

Question: And the “Hyperpigmentation: Mild, subjects n (%)” value?
Answer: 20 (19.0%) and 19 (19.2%) and 31 (27.7%) and 22 (21.0%)

Question: What about the “Hyperpigmentation: Moderate, subjects n (%)” value of the same compound?
Answer: 4 (3.8%) and 4 (4.0%) and 6 (5.4%)

Question: And the “Hyperpigmentation: None, subjects n (%)” value?
Answer: 81 (77.1%) and 76 (76.8%) and 75 (67.0%) and 79 (75.2%)

Question: What about the “Hyperpigmentation: Severe, subjects n (%)” value of the same compound?
Answer: 0

Question: And the Immune system disorders?
Answer: 0 subjects (%)

Question: What about the Infectious mononucleosis of the same compound?
Answer: 0 subjects (%)

Question: What about the “Itching: None, subjects n (%)” value of the same compound?
Answer: 87 (77.7%) and 79 (75.2%) and 86 (81.9%) and 86 (86.9%)

Question: And the Ligament rupture?
Answer: 0 subjects (%)

Question: And the “Metabolism and nutrition disorders” value?
Answer: 0 subjects (%)

Question: What about the Nail discolouration of the same compound?
Answer: 0 subjects (%)

Question: What about the Nasopharyngitis of the same compound?
Answer: 0 subjects (%)

Question: What about the Nausea of the same compound?
Answer: 0 subjects (%)

Question: What about the “Neoplasms benign, malignant and unspecified (incl cysts and polyps)” value of the same compound?
Answer: 0 subjects (%)

Question: What about the “Number (%) of subjects withdrawn from study due to TEAE” value of the same compound?
Answer: 3 (2.7%) subjects (%)

Question: What about the “Number (%) of subjects withdrawn from study due to treatment-related TEAE” value of the same compound?
Answer: 3 (2.7%) subjects (%)

Question: What about the Oropharyngeal pain of the same compound?
Answer: 0 subjects (%)

Question: What about the Otitis media acute of the same compound?
Answer: 0 subjects (%)

Question: What about the Pain of the same compound?
Answer: 0 subjects (%)

Question: What about the Pain of skin of the same compound?
Answer: 0 subjects (%)

Question: And the Paranasal sinus discomfort?
Answer: 0 subjects (%)

Question: What about the Pharyngitis streptococcal of the same compound?
Answer: 0 subjects (%)

Question: What about the Pyogenic granuloma of the same compound?
Answer: 0 subjects (%)

Question: And the “Rash, (%) of subjects” value?
Answer: (0.9%)

Question: And the Rhinorrhoea?
Answer: 0 subjects (%)

Question: What about the “Scaling: Mild, subjects n (%)” value of the same compound?
Answer: 21 (18.8%) and 19 (18.1%) and 17 (16.2%) and 12 (12.1%)

Question: And the “Scaling: Moderate, subjects n (%)” value?
Answer: 2 (1.8%) and 3 (2.9%) and 2 (1.9%) and 3 (3.0%)

Question: What about the “Scaling: None, subjects n (%)” value of the same compound?
Answer: 89 (79.5%) and 83 (79.0%) and 86 (81.9%) and 84 (84.8%)

Question: What about the “Scaling: Severe, subjects n (%)” value of the same compound?
Answer: 0

Question: And the Sciatica?
Answer: 0 subjects (%)

Question: What about the Seasonal allergy of the same compound?
Answer: 0 subjects (%)

Question: And the “Serious AE” value?
Answer: 0

Question: What about the “Subjects reporting at least one treatment-related TEAE” value of the same compound?
Answer: 10 (8.9%) subjects (%)

Question: And the “Subjects with any TEAE leading to discontinuation of study drug” value?
Answer: 3 (2.7%)

Question: And the “Subjects with at least one AE” value?
Answer: 20 (17.9%)

Question: What about the “Systolic Blood Pressure, Max” value of the same compound?
Answer: 92, 150 mmHg and 96, 150 mmHg and 95, 152 mmHg and 92, 149 mmHg

Question: What about the “Systolic Blood Pressure, Mean” value of the same compound?
Answer: 116.7 mmHg

Question: What about the “Systolic Blood Pressure, Min” value of the same compound?
Answer: 92, 150 mmHg and 96, 150 mmHg and 95, 152 mmHg and 92, 149 mmHg

Question: What about the “TEAE: Abdominal pain” value of the same compound?
Answer: 0

Question: What about the “TEAE: Acne” value of the same compound?
Answer: 2 (1.8%)

Question: And the “TEAE: Acute sinusitis” value?
Answer: 1 (0.9%)

Question: What about the “TEAE: Burning sensation” value of the same compound?
Answer: 0

Question: What about the “TEAE: Burns first degree” value of the same compound?
Answer: 1 (0.9%)

Question: And the “TEAE: Constipation” value?
Answer: 0

Question: What about the “TEAE: Cough” value of the same compound?
Answer: 1 (0.9%)

Question: What about the “TEAE: Dehydration” value of the same compound?
Answer: 0

Question: What about the “TEAE: Dermatitis contact” value of the same compound?
Answer: 0

Question: What about the “TEAE: Diarrhoea” value of the same compound?
Answer: 1 (0.9%)

Question: What about the “TEAE: Dry skin” value of the same compound?
Answer: 4 (3.6%)

Question: And the “TEAE: Eczema” value?
Answer: 1 (0.9%)

Question: What about the “TEAE: Erythema of eyelid” value of the same compound?
Answer: 1 (0.9%)

Question: And the “TEAE: Eye disorders” value?
Answer: 3 (2.7%)

Question: What about the “TEAE: Eye irritation” value of the same compound?
Answer: 2 (1.8%)

Question: What about the “TEAE: Facial bones fracture” value of the same compound?
Answer: 1 (0.9%)

Question: What about the “TEAE: Gastrointestinal disorders” value of the same compound?
Answer: 1 (0.9%)

Question: What about the “TEAE: General disorders and administration site conditions” value of the same compound?
Answer: 1 (0.9%)

Question: What about the “TEAE: Headache” value of the same compound?
Answer: 2 (1.8%)

Question: What about the “TEAE: Hordeolum” value of the same compound?
Answer: 1 (0.9%)

Question: What about the “TEAE: Hyperaesthesia” value of the same compound?
Answer: 0

Question: What about the “TEAE: Immune system disorders” value of the same compound?
Answer: 0

Question: What about the “TEAE: Infections and infestations” value of the same compound?
Answer: 8 (7.1%)

Question: And the “TEAE: Infectious mononucleosis” value?
Answer: 0

Question: What about the “TEAE: Injury, poisoning and procedural complications” value of the same compound?
Answer: 2 (1.8%)

Question: What about the “TEAE: Ligament rupture” value of the same compound?
Answer: 0

Question: And the “TEAE: Ligament sprain” value?
Answer: 1 (0.9%)

Question: And the “TEAE: Metabolism and nutrition disorders” value?
Answer: 0

Question: And the “TEAE: Nail discolouration” value?
Answer: 0

Question: And the “TEAE: Nasopharyngitis” value?
Answer: 0

Question: And the “TEAE: Nausea” value?
Answer: 0

Question: And the “TEAE: Neoplasms benign, malignant and unspecified (incl cysts and polyps)” value?
Answer: 0

Question: And the “TEAE: Nervous system disorders” value?
Answer: 2 (1.8%)

Question: And the “TEAE: Oropharyngeal pain” value?
Answer: 0

Question: What about the “TEAE: Otitis media acute” value of the same compound?
Answer: 0

Question: What about the “TEAE: Pain” value of the same compound?
Answer: 0

Question: What about the “TEAE: Pain of skin” value of the same compound?
Answer: 0

Question: What about the “TEAE: Pharyngitis” value of the same compound?
Answer: 1 (0.9%)

Question: And the “TEAE: Pharyngitis streptococcal” value?
Answer: 0

Question: And the “TEAE: Pyogenic granuloma” value?
Answer: 0

Question: And the “TEAE: Rash” value?
Answer: 2 (1.8%)

Question: What about the “TEAE: Respiratory, thoracic and mediastinal disorders” value of the same compound?
Answer: 1 (0.9%)

Question: What about the “TEAE: Rhinorrhoea” value of the same compound?
Answer: 0

Question: And the “TEAE: Sciatica” value?
Answer: 0

Question: What about the “TEAE: Seasonal allergy” value of the same compound?
Answer: 0

Question: What about the “TEAE: Sinusitis” value of the same compound?
Answer: 1 (0.9%)

Question: And the “TEAE: Skin discolouration” value?
Answer: 1 (0.9%)

Question: And the “TEAE: Skin irritation” value?
Answer: 1 (0.9%)

Question: What about the “TEAE: Staphylococcal infection” value of the same compound?
Answer: 1 (0.9%)

Question: What about the “TEAE: Toothache” value of the same compound?
Answer: 0

Question: And the “TEAE: Upper respiratory tract infection” value?
Answer: 1 (0.9%)

Question: What about the “TEAE: Viral upper respiratory tract infection” value of the same compound?
Answer: 1 (0.9%)

Question: And the “TEAE: Vomiting” value?
Answer: 0

Question: And the Toothache?
Answer: 0 subjects (%)

Question: What about the “Treatment-Related AE” value of the same compound?
Answer: 10 (8.9%)

Question: What about the Vomiting of the same compound?
Answer: 0 subjects (%)

Question: And the “Weight, Max” value?
Answer: 43.5, 163.3 kg and 43.5, 166.0 kg

Question: What about the “Weight, Mean” value of the same compound?
Answer: 77.06 kg and 77.28 kg

Question: What about the “Weight, Median” value of the same compound?
Answer: 71.10 kg and 71.50 kg

Question: What about the “Weight, Min” value of the same compound?
Answer: 43.5, 163.3 kg and 43.5, 166.0 kg

Question: And the “Withdrawal from Study, Primary Reason: Adverse Event, % of subjects” value?
Answer: 3 (2.7%)

Question: And the “Withdrawal from Study, Primary Reason: Adverse Event, number of subjects” value?
Answer: 3 (2.7%)

Question: And the “adverse events assessed as mild in severity” value?
Answer: 12.5%

Question: And the “dry skin adverse event” value?
Answer: 3.6%

Question: And the “overall tolerability (LSTA) scores compared to the other treatment groups” value?
Answer: lower

Question: What about the “subject discontinuations due to a treatment emergent adverse event” value of the same compound?
Answer: 2.7%

Question: And the “subjects with TEAEs that led to discontinuation of study drug” value?
Answer: 3 subjects

Question: And the “subjects with severe (treatment related) TEAE” value?
Answer: 1.8%

Question: And the “treatment emergent adverse events, frequency” value?
Answer: 8.9%

Question: What about the “TEAE: Skin and subcutaneous tissue disorders” value (sc) of the same compound?
Answer: 10 (8.9%)
